Our source for the inhibition values is patent publication US5098613A, “Anti-inflammatory agents” (Eli Lilly and Company, priority 1990, dated 1992).

Structures can show the parent of a compound that is named as a salt.

Test [1] concerns the target T1, leukotriene B4 specific receptor on the membrane of human neutrophils (Homo sapiens, UniProt Q15722).
T1 construct: incubating neutrophils (1×10^7 cells) with 0.1-0.2 nM ^3 H-LTB4; endogenous in cells; host or cells: human peripheral blood neutrophils (buffy coats of two blood donors)
Description: Inhibition of Binding of ^3 H-LTB4 to Peripheral Human Neutrophils. The note with it: 4° C., 10 minutes; for inhibition at 10 µM: drug concentration 10^-5 M, read-out: LTB4 Binding Inhibition; for inhibition at 1 µM: drug concentration 10^-6 M. Here is the method:
The effectiveness of compounds to inhibit the binding of leukotriene B4 to a specific receptor on the membrane of human neutrophils was measured by using an adaptation of a radio-ligand binding assay developed by Goldman and Goetzl, J. Immunol., 129, 1600 (1982). Other investigators have developed similar assays (see, e.g., Kreisle, et al., J. Exp. Med., 157, 628 (1983) and Lin, et al., Prostaglandins, 28, 837 (1984)).
Cells used in the assay were isolated by standard techniques of centrifugation on Ficol-Hypaque, dextran 70 sedimentation and hypotonic lysis. The following procedure was used. Freshly-prepared buffy coat layers from two individuals were obtained from a local blood donor center. The cells were mixed and diluted to 484 ml. with phosphate buffered saline containing heparin (10 units/ml) and heat-inactivated calf serum (5%). This was divided into 20 ml. aliquots and the aliquots layered on top of Ficoll-Paque (12 ml.). The material was then centrifuged at 500 g. for 40 minutes at room temperature. The resulting upper layer of platelets and mononuclear cells was discarded. The lower layer containing erythrocytes and neutrophils was retained. Buffer was added (1 ml. per 4 ml. of lower layer) and the suspension mixed. For each milliliter of this mixture, 0.33 ml. of 6% Macrodex was added. After stirring, the cels were allowed to sediment for 1 hour at 37° C. The resulting erythrocyte pellet was discarded and the neutrophil enriched supernatant fluid centrifuged at 500 g. for 10 minutes at 4° C. Erythrocytes still present in this cell pellet were lysed by incubating the cells with 5-8 ml. ice-cold distilled water for 30-45 seconds. Subsequently, the volume was made up to 50 ml. by addition of ice-cold buffer and the cells resuspended. The suspension was then centrifuged at 300 g. for 10 minutes at 4° C. The cells were finally resuspended at a cell density of 2×10^7 cells/ml in the assay buffer. This buffer Consisted of Hanks' balanced salt solution and 0.1% ovalbumin (pH 7.3).
The radio-ligand binding assay was conducted by incubating neutrophils (1×10^7 cells) with 0.1-0.2 nM ^3 H-LTB4 (sp. act. 150-220 Curies/mmol) and test compound (1×10^-5 M and 1×10^-6 M) for 10 minutes at 4° C. The amount of bound ^3 H-LTB4 was then measured and compared with the amount bound in the absence of test compound. The assay was carried out in microcentrifuge tubes by adding first 10 μl test compound dissolved in DMSO, followed by adding 20 μl ^3 H-LTB4 diluted in assay buffer, and finally adding 500 μl of the cell suspension pension. At the end of the 10 minutes incubation, 300 μl of a mixture of dibutyl and dinonyl phthalate (7:2) were added and the tubes centrifuged for 2 minutes in a microcentrifuge. The radioactivity bound to the cell pellet was measured by scintillation spectroscopy. Appropriate corrections for nonspecific bonding of ^3 H-LTB4 were made.

The subject of test [2] is IL-1 induced T-cell Proliferation. The test is described as follows: Anti IL-1 Activity (Thymocyte Assay): suppression of IL-1 induced T-cell proliferation. It is filed as cell-based, C3H/HeJ male mice. The note with it: mouse thymocytes, 48 hours, read-out: Percent T-cell suppression; for inhibition at 1 µg/mL: 1 mcg/ml; for inhibition at 10 µg/mL: 10 mcg/ml. As to the method: Thymus from 3-4 week old C3H/HeJ male mice and were passed through a #100 mesh screen to make a single cell suspension. The cells were suspended in RPMI-1640 supplemented with 2×10^-5 M 2-mercaptoethanol, 3% fetal calf serum, and 1% Penicillin/Streptomycin. The cell suspension was placed in a tissue culture flask and incubated at 37° C. in 5% carbon dioxide in air for 1-2 hours. The thymocytes were decanted, leaving adherent cells behind, and the liquid was centrifuged at 1400 rpm for 10 minutes. After decanting the supernatant, the cells were resuspended and counted with a hemocytometer. The density was adjusted to […]. Fifty μ1 of the suspension were added to each well of a 96-well microtiter plate, followed by the addition of 25 μl of PHA and 25 μl IL-1 (1:25 dilution of a 10 mcg/ml stock solution) per well.
Each compound to be tested was dissolved in 30% DMSO/70% PBS to make a stock solution of 1 mg/ml. Fifteen μl of each compound were added to 300 μl of media in the serial dilution plate. Twenty-five μl of each drug were added to the test plate in quadruplicate wells across the plate. The plate was incubated at 37° C. in 5% carbon dioxide in air for 48 hours. The wells were pulsed with tritiated thymidine (5 μCi.well) for 4 hours before harvesting on a Skatron cell harvester. The filter discs were placed in mini-vials, scintillation fluid (Tol-Pop) was added, and the vials counted. The percent of counts for each vial compared with control samples wherein no compound was added (vehicles only) was determined for each compound and are reported as Table III below as the percent T-ce1 suppression.

T1 sequence (Q15722 whole entry): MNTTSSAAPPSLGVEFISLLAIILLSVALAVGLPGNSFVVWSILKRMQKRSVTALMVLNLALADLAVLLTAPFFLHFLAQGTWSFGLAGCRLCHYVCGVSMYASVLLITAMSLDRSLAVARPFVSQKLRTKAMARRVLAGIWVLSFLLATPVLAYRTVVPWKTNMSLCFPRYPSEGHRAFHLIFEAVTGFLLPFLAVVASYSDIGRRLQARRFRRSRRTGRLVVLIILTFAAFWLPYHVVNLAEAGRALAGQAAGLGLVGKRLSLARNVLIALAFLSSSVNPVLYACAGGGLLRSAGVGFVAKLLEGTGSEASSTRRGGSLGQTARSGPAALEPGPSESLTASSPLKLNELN

As to `CCCCc1cc(C(C)=O)c(O)cc1OCCCCC#N` [Example 30, 5-(4-Acetyl-2-butyl-5-hydroxyphenoxy)-pentanenitrile], in test [1], the inhibition at 10 µM turned out to be 37% and the inhibition at 1 µM amounted to 7%. Moreover, in test [2], the inhibition at 1 µg/mL amounted to 32% and the inhibition at 10 µg/mL worked out at 91%.
In the case of `CC(=O)c1cc(CC(C)O)c(OCCCCC#N)cc1O` (centres unmarked) [Example 125, 5-[4-Acetyl-5-hydroxy-2-(2-hydroxypropyl)-phenoxy]pentanenitrile], in test [1], the inhibition at 10 µM stood at 10% and the inhibition at 1 µM came out at 6%. Further, in test [2], the inhibition at 1 µg/mL was 30% and the inhibition at 10 µg/mL was 85%.
On the same counts, the results for `C=CCc1cc(C(=O)CCCCCCCCC)c(O)cc1OCCCCC#N` [Example 107, 5-[5-Hydroxy-4-(1-oxodecyl)-2-allylphenoxy]pentanenitrile] are 10%, 6%, 47% and 26%.
Consider `C=CCc1cc(C(C)=O)c(OC)cc1OCCCCC#N` [Example 115, 5-(4-Acetyl-5-methoxy-2-allylphenoxy)pentanenitrile], for which, in test [1], the inhibition at 10 µM lay in the range of 12 to 16% and the inhibition at 1 µM lay in the range of 7 to 8%. Besides, in test [2], the inhibition at 1 µg/mL was 29% and the inhibition at 10 µg/mL is 96%.
For `CCc1cc(C(=O)c2ccccc2C(=O)O)c(O)cc1OCCCCC#N` [Example 89, 2-[4-(4-Cyanobutoxy)-5-ethyl-2-hydroxybenzoyl]benzoic acid], in test [1], the inhibition at 10 µM turned out to be 11% and the inhibition at 1 µM was 15%. For the same compound, in test [2], the inhibition at 1 µg/mL was 9% and the inhibition at 10 µg/mL was found to be 39%.
For the compound `CCc1cc(C(=O)c2cccc(C(=O)O)c2)c(O)cc1OCCCCC#N` [Example 92], in test [1], the inhibition at 10 µM stood at 40% and the inhibition at 1 µM was 20%. For the same compound, in test [2], the inhibition at 1 µg/mL was 5% and the inhibition at 10 µg/mL was determined as 38%.
On the same counts, the results for `CCc1cc(C(=O)CCCCC(=O)O)c(O)cc1OCCCCC#N` [Example 90, 6-[(4-Cyanobutoxy)-5-ethyl-2-hydroxybenzene]-6-oxohexanoic acid] are 1%, -2%, 3% and 47%.
Take `C=CCc1cc(C(C)=O)c(O)cc1OCCCCCCCC` [Example 38, 4-(Octyloxy)-5-allyl-2-hydroxyacetophenone]: in test [1], the inhibition at 10 µM is 16% and the inhibition at 1 µM was 8%. Besides, in test [2], the inhibition at 1 µg/mL is -8% and the inhibition at 10 µg/mL is 28%.
For `CC(=O)c1cc(CO)c(OCCCCCCC#N)cc1O` [Example 36, 7-[4-Acetyl-5-hydroxy-2-(hydroxymethyl)-phenoxy]heptanenitrile], in test [1], the inhibition at 10 µM was determined as 40% and the inhibition at 1 µM stood at 7%. In test [2], the inhibition at 1 µg/mL was found to be 15% and the inhibition at 10 µg/mL stood at 75%.
Regarding `C=CCc1cc(C(C)=O)c(O)cc1OCCCCN(C)C` [Example 76, 4-[4-(Dimethylamino)butoxy]-2-hydroxy-5-allylacetophenone hydrochloride], in test [1], the inhibition at 10 µM stood at 0% and the inhibition at 1 µM came out at 0%. In addition, in test [2], the inhibition at 1 µg/mL came out at 39% and the inhibition at 10 µg/mL is 79%.
On to `C=CCc1cc(C(C)=O)c(O)cc1OCCCCc1nn[nH]n1` [Example 109, 2-Hydroxy-5-allyl-4-[4-(lH-tetrazol-5-yl)-butoxy]acetophenon], for which, in test [1], the inhibition at 10 µM is 41% and the inhibition at 1 µM came to 3%. Besides, in test [2], the inhibition at 1 µg/mL was determined as 7% and the inhibition at 10 µg/mL is 56%.
For the compound `CCCc1cc(C(C)=O)c(Cl)cc1OCCCCC#N` [Example 15, 5-(4-Acetyl-5-chloro-2-propylphenoxy)-pentanenitrile], in test [1], the inhibition at 10 µM is 35% and the inhibition at 1 µM amounted to 13%. Moreover, in test [2], the inhibition at 1 µg/mL is 33% and the inhibition at 10 µg/mL amounted to 91%.
Regarding `C=CCc1cc(C(C)=O)c(O)cc1OCCCCO` [Example 44, 4-(4-Hydroxybutoxy)-5-allyl-2-huydroxy-aoetophenone], in test [1], the inhibition at 10 µM was 47% and the inhibition at 1 µM is 9%.
`C=CCc1cc(C(=O)CC)c(O)cc1OCCCCC#N` [Example 105, 5-[5-Hydroxy-4-(1-oxopropyl)-2-allylphenoxy]pentanenitrile]: in test [1], the inhibition at 10 µM is 76% and the inhibition at 1 µM stood at 35%.
With `CC(=O)c1cc(C(C)=O)c(OCCCCC#N)cc1O` [Example 16, 5-(2,4-Diacetyl-5-hydroxy-phenoxy)pentanenitrile], in test [1], the inhibition at 10 µM came out at 8% and the inhibition at 1 µM was -7%.
For `CCCc1cc(C(C)=O)c(O)cc1OCCCCC(=O)O` [Example 132, 5-(4-Acetyl-5-hydroxy-2-propylphenoxy)pentanoic acid], in test [1], the inhibition at 10 µM was determined as 0% and the inhibition at 1 µM came out at 0%. In addition, in test [2], the inhibition at 1 µg/mL was 15% and the inhibition at 10 µg/mL stood at 59%.
With `CCOC(=O)Cn1nnnc1CCCCOc1cc(O)c(C(C)=O)cc1CC` [Example 142, 5-[4-(4-acetyl-2-ethyl-5-hydroxyphenoxy)butyl]-1H-tetrazole-1-acetic acid, ethyl ester], in test [1], the inhibition at 10 µM came out at 34% and the inhibition at 1 µM worked out at 5%.
Consider `C=CCc1cc(C(C)=O)c(O)cc1OCCCCCCCCC#N` [Example 23, 9-(4-Aoetyl-5-hydroxy-2-allylphenoxy)-nonanenitrile], for which, in test [1], the inhibition at 10 µM worked out at 85% and the inhibition at 1 µM came to 50%.
As to `CCOC(=O)Cn1nnc(CCCCOc2cc(O)c(C(C)=O)cc2CC)n1` [Example 141, 5-[4-(4-Acetyl-2-ethyl-5-hydroxyphenoxy)-butyl]-2H-tetrazole-2-acetic acid, ethyl ester], in test [1], the inhibition at 10 µM turned out to be 90% and the inhibition at 1 µM worked out at 57%.
On to `CCCc1cc(C(C)=O)c(O)cc1OCCCCNC(C)=O` [Example 77, N-[4-(4-Acetyl-5-hydroxy-2-propylphenoxy)-butyl]acetamide], for which, in test [1], the inhibition at 10 µM worked out at 71% and the inhibition at 1 µM is 23%.
Turning to `CCc1cc(CC)c(OCCCCCC(C)(C)c2nnn[nH]2)cc1O` [Example 151, 2,4-Diethyl-5-{[6-methyl-6-(1H-tetrazol-5-yl)heptyl]oxy}phenol], in test [1], the inhibition at 10 µM was found to be 105% and the inhibition at 1 µM was 103%. The inhibition at 0.1 µM in test [1] (drug concentration 10^-7 M) turned out to be 78%.
Regarding `COCc1cc(C(C)=O)c(O)cc1OCCCCCCC#N` [Example 129, 7-[4-Acetyl-5-hydroxy-2-(methoxymethyl)phenoxy]-hdptanentrile], in test [1], the inhibition at 10 µM was 47% and the inhibition at 1 µM was found to be 7%.
